As usually defined, the GI50 is the concentration giving 50% growth inhibition. A low value points to more potent growth inhibition.

T1 sequence (P15056 whole entry, change not shown, the tested form may be a part): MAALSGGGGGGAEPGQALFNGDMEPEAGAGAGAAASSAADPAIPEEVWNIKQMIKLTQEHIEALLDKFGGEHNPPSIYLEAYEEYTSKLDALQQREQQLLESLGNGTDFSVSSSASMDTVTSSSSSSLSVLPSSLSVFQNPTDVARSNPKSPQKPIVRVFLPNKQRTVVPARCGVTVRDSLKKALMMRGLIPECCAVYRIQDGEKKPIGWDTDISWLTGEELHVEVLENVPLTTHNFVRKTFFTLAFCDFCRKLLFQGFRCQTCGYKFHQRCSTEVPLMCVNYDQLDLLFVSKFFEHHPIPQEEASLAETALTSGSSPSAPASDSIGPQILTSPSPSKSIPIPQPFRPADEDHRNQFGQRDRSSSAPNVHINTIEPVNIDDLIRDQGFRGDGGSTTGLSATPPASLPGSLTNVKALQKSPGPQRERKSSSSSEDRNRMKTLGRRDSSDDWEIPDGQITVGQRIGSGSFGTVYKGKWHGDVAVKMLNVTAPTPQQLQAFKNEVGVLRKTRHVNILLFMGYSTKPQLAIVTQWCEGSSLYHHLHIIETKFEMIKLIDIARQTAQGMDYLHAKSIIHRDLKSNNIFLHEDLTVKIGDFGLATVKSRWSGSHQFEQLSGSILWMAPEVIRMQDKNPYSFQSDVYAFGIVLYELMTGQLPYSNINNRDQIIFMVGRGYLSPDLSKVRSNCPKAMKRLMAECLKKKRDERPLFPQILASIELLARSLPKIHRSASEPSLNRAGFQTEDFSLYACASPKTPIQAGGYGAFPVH

One assay concerns the target T1, BaF3 BRAF-KIAA1549 fusion cells (Homo sapiens, UniProt P15056).
T1 construct: The BRAF-KIAA1549 fusion mutant was subcloned into pMXs-IRES-Blasticidin (RTV-016, Cell Biolabs, San Diego, CA); No tag given; Q9HCM3 (UPF0606 protein KIAA1549)
Briefly: BaF3 BRAF-KIAA1549 fusion cell proliferation assay (CellTiterGlo, 96 hours). The settings on record: Table A1. It is filed as cell-based. Put shortly: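 BaF3 cells retrovirally transduced with BRAF-KIAA1549 fusion and blasticidin-selected were plated at 7×10^4 c/well in RPMI, 10% heat-inactivated FBS, 1% L-glutamine, and exposed to compound for 96 hours. Growth was read as ATP content by CellTiterGlo luminescence. IC50 was fitted by Levenberg-Marquardt, normalised to DMSO-treated cells.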
Take `CNc1cc2ncc(-c3cc(NC(=O)c4ccnc(C(C)(C)F)c4)cnc3C)cc2cn1` [Compound 24, 2-(2-Fluoropropan-2-yl)-N-(6-methyl-5-(7-(methylamino)-1,6-naphthyridin-3-yl)pyridin-3-yl)isonicotinamide]: the GI50 was < 20 nM.
`CNc1cc2ncc(-c3cc(NC(=O)c4cccc(N(C)C)c4)ccc3C)cc2cn1` [Compound 4, 3-(Dimethylamino)-N-(4-methyl-3-(7-(methylamino)-1,6-naphthyridin-3-yl)phenyl)benzamide]: the GI50 was < 20 nM.
Molecule `CNc1cc2ncc(-c3cc(F)c(F)c(NC(=O)c4cc(C(C)(C)C#N)ccn4)c3)cc2cn1` [Compound 46, 4-(2-Cyanopropan-2-yl)-N-(2,3-difluoro-5-(7-(methylamino)-1,6-naphthyridin-3-yl)phenyl)picolinamide] had a GI50 of 100 to 500 nM.
Still for that read-out and setting: with `CNc1cc2ncc(-c3cc(NC(=O)CN4CCC[C@H](C(F)(F)F)C4)cnc3C)cc2cn1` [Compound 62, (S)—N-(6-Methyl-5-(7-(methylamino)-1,6-naphthyridin-3-yl)pyridin-3-yl)-2-(3-(trifluoromethyl)piperidin-1-yl)acetamide] the figure was 20 to 100 nM.
The same measure, in the same setting: with `CNc1cc2ncc(-c3cc(NC(=O)C[C@H]4C[C@H](C(F)(F)F)CCO4)cnc3C)cc2cn1` (single isomer, unassigned) [Compound 36] the figure was 100 to 500 nM.
For the molecule `CNc1cc2ncc(-c3cc(NC(=O)c4cc(C(C)(C)C#N)ccn4)cnc3C)cc2cn1` [Compound 30, 4-(2-Cyanopropan-2-yl)-N-(6-methyl-5-(7-(methylamino)-1,6-naphthyridin-3-yl)pyridin-3-yl)picolinamide], the GI50 is 20 to 100 nM.
For `CNc1cc2ncc(-c3cc(NC(=O)[C@@H](C)n4cnc(C(F)(F)F)n4)ccc3C)cc2cn1` (single isomer, unassigned) [Compound 69], the GI50 is 100 to 500 nM.
On to `CNc1cc2ncc(-c3cc(NC(=O)c4nccc(C(F)(F)F)c4F)cnc3C)cc2cn1` [Compound 52, 3-Fluoro-N-(6-methyl-5-(7-(methylamino)-1,6-naphthyridin-3-yl)pyridin-3-yl)-4-(trifluoromethyl)picolinamide], for which the concentration for 50% growth inhibition (GI50) was < 20 nM.

Still in this assay, the particulars now being: Table A2.
Take `CNc1cc2ncc(-c3cc(NC(=O)c4cnc5n4CCCC5)cnc3C)cc2cn1` [Compound 209, N-(6-methyl-5-(7-(methylamino)-1,6-naphthyridin-3-yl)pyridin-3-yl)-5,6,7,8-tetrahydroimidazo[1,2-a]pyridine-3-carboxamide]: the GI50 was ≥ 500 nM.
For the molecule `Cc1ncc(NC(=O)c2cc(C(F)(F)F)ccn2)cc1-c1ccc2c3c(ncc2c1)NC(=O)C3` [Compound 274, N-(6-methyl-5-(2-oxo-2,3-dihydro-1H-pyrrolo[2,3-c]isoquinolin-7-yl)pyridin-3-yl)-4-(trifluoromethyl)picolinamide], the GI50 is < 20 nM.
In the case of `Cc1ccc(NC(=O)c2ccnc(C(C)(C)F)c2)cc1-c1ccc2c3c(ncc2c1)NC(=O)C3` [Compound 276, 2-(2-fluoropropan-2-yl)-N-(4-methyl-3-(2-oxo-2,3-dihydro-1H-pyrrolo[2,3-c]isoquinolin-7-yl)phenyl)isonicotinamide], the GI50 was < 20 nM.
Consider `CNc1cc2ncc(-c3cc(NC(=O)c4cccc(C(O)C(F)(F)F)n4)cnc3C)cc2cn1` (stereo not shown) [Compound 210, N-(6-methyl-5-(7-(methylamino)-1,6-naphthyridin-3-yl)pyridin-3-yl)-6-(2,2,2-trifluoro-1-hydroxyethyl)picolinamide], for which the GI50 is ≥ 500 nM.
Regarding `CNc1cc2ncc(-c3cc(NC(=O)c4cnc5n4C[C@@H](C)CC5)ccc3C)cc2cn1` (single isomer, unassigned) [Compound 231], the GI50 was 20 to 100 nM.

Source of the values: patent publication US20250017914A1, “6-AZA-QUINOLINE DERIVATIVES AND RELATED USES” (Black Diamond Therapeutics, Inc., priority 2021, published 2025).
